Like-named read-outs stand apart in the source and are kept apart here.
How the values were obtained:
mouse brain MAO [1] = target: T1, mouse brain MAO (Mus musculus, UniProt Q64133); conditions: for % INHIBITION: substrate 5 HT
T1 sequence (Q64133 1-526): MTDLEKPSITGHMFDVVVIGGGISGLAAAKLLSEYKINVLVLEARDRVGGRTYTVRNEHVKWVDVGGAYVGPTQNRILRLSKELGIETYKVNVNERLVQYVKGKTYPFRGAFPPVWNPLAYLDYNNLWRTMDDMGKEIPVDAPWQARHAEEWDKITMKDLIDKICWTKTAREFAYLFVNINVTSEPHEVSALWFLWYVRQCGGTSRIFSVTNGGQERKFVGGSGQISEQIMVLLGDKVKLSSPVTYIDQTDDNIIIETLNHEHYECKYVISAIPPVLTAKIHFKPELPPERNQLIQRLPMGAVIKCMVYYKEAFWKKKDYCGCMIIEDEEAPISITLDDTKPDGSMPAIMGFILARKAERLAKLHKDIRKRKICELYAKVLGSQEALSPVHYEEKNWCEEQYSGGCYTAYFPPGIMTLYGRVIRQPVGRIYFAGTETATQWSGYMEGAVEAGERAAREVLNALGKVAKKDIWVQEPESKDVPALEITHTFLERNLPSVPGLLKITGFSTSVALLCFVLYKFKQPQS

mouse brain MAO [2] = target: T1, mouse brain MAO; assay: biochemical
in vivo = conditions: mouse, po
[3] = test system: tetrabenazine-induced sedation; assay: Mouse antidepressant (antitetrabenazine) test: prevention of tetrabenazine-induced ptosis and loss of exploratory activity; conditions: for ED50: Mus musculus, po; for No. of Mice Blocked, EXPLORATORY ACTIVITY / No. of Mice Blocked, PTOSIS: 4 h after molindone
[4] = test system: tryptamine-induced stereotypies and hind limb paralysis; assay: Tryptamine potentiation test; format: in vivo, mice; conditions: 2.5 mg/kg p.o., 4 Hrs., N=10
Procedure: […] […] (60 Mg/kg of tryptamine alone causes this syndrome but it lasts for less than a minute, usually only a few seconds.) The data were analyzed quantally and ED50's calculated.

[5] = 1 mg/kg oral (free base), 1 h, N=10
[6] = 1 mg/kg oral (free base), 2 h, N=10
[7] = 1 mg/kg oral (free base), 4 h, N=10
[8] = 3 mg/kg oral (free base), 1 h, N=10
[9] = 3 mg/kg oral (free base), 2 h, N=10
[10] = 3 mg/kg oral (free base), 4 h, N=10
[11] = 9 mg/kg oral (free base), 1 h, N=10
[12] = 9 mg/kg oral (free base), 2 h, N=10
[13] = 9 mg/kg oral (free base), 4 h, N=10
[14] = 13 mg/kg oral (free base), 1 h, N=20
[15] = 13 mg/kg oral (free base), 2 h, N=20
[16] = 13 mg/kg oral (free base), 3 h, N=20
[17] = 13 mg/kg oral (free base), 4 h, N=20
[18] = 13 mg/kg oral (free base), 6 h, N=20
[19] = 13 mg/kg oral (free base), 24 h, N=20
[20] = 27 mg/kg oral (free base), 1 h, N=10
[21] = 27 mg/kg oral (free base), 2 h, N=10
[22] = 27 mg/kg oral (free base), 4 h, N=10
[23] = 81 mg/kg oral (free base), 1 h, N=10
[24] = 81 mg/kg oral (free base), 2 h, N=10
[25] = 81 mg/kg oral (free base), 4 h, N=10
[26] = molindone 1.5 mg/kg oral alone, N=20
[27] = molindone 4.5 mg/kg oral alone, N=20
[28] = molindone 13.5 mg/kg oral alone, N=20
[29] = molindone 40.5 mg/kg oral alone, N=20
[30] = molindone alone, oral, 4 h, free base basis, N=20 (Table 2)

For `CCc1c(C)[nH]c2c1C(=O)C(CN1CCOCC1)CC2` (stereo not shown) [Molindone, 3-ethyl-6,7-dihydro-2-methyl-5-(morpholinomethyl)indol-4-(5H)-one], the “MAO inhibition (in words)” value (mouse brain MAO [1]; at the high concentration of 1×10^-3 M) was “virtually inactive”, the “% INHIBITION” value (mouse brain MAO [1]; final conc. 10^-3 m/l) was 14% and the “% INHIBITION” value (mouse brain MAO [1]; final conc. 10^-4 m/l) was 1%. The “% INHIBITION” value (mouse brain MAO [1]; final conc. 10^-5 m/l) was 1%, the “% INHIBITION” value (mouse brain MAO [1]; final conc. 10^-6 m/l) was 0% and the IC50 (mouse brain MAO [2]) was greater than 1 mM. The LD50 at 24 h (in vivo) was 440 mg/kg, the “NUMBER OF MICE BLOCKED, EXPLORATORY ACTIVITY” value [3, 5] was 0 and the “NUMBER OF MICE BLOCKED, PTOSIS” value [3, 5] was 0. For the same molecule, the “NUMBER OF MICE BLOCKED, EXPLORATORY ACTIVITY” value [3, 6] was 0, the “NUMBER OF MICE BLOCKED, PTOSIS” value [3, 6] was 0 and the “NUMBER OF MICE BLOCKED, EXPLORATORY ACTIVITY” value [3, 7] was 0. The “NUMBER OF MICE BLOCKED, PTOSIS” value [3, 7] was 0, the “NUMBER OF MICE BLOCKED, EXPLORATORY ACTIVITY” value [3, 8] was 0 and the “NUMBER OF MICE BLOCKED, PTOSIS” value [3, 8] was 0. The “NUMBER OF MICE BLOCKED, EXPLORATORY ACTIVITY” value [3, 9] was 0, the “NUMBER OF MICE BLOCKED, PTOSIS” value [3, 9] was 1 and the “NUMBER OF MICE BLOCKED, EXPLORATORY ACTIVITY” value [3, 10] was 0. For the same molecule, the “NUMBER OF MICE BLOCKED, PTOSIS” value [3, 10] was 0, the “NUMBER OF MICE BLOCKED, EXPLORATORY ACTIVITY” value [3, 11] was 0 and the “NUMBER OF MICE BLOCKED, PTOSIS” value [3, 11] was 0. The “NUMBER OF MICE BLOCKED, EXPLORATORY ACTIVITY” value [3, 12] was 3, the “NUMBER OF MICE BLOCKED, PTOSIS” value [3, 12] was 5 and the “NUMBER OF MICE BLOCKED, EXPLORATORY ACTIVITY” value [3, 13] was 5. The “NUMBER OF MICE BLOCKED, PTOSIS” value [3, 13] was 7, the “NUMBER OF MICE BLOCKED, EXPLORATORY ACTIVITY” value [3, 14] was 0 and the “NUMBER OF MICE BLOCKED, PTOSIS” value [3, 14] was 0. The “NUMBER OF MICE BLOCKED, EXPLORATORY ACTIVITY” value [3, 15] was 6, the “NUMBER OF MICE BLOCKED, PTOSIS” value [3, 15] was 8 and the “NUMBER OF MICE BLOCKED, EXPLORATORY ACTIVITY” value [3, 16] was 16. For the same molecule, the “NUMBER OF MICE BLOCKED, PTOSIS” value [3, 16] was 19, the “NUMBER OF MICE BLOCKED, EXPLORATORY ACTIVITY” value [3, 17] was 19 and the “NUMBER OF MICE BLOCKED, PTOSIS” value [3, 17] was 20. The “NUMBER OF MICE BLOCKED, EXPLORATORY ACTIVITY” value [3, 18] was 20, the “NUMBER OF MICE BLOCKED, PTOSIS” value [3, 18] was 20 and the “NUMBER OF MICE BLOCKED, EXPLORATORY ACTIVITY” value [3, 19] was 6. The “NUMBER OF MICE BLOCKED, PTOSIS” value [3, 19] was 10, the “NUMBER OF MICE BLOCKED, EXPLORATORY ACTIVITY” value [3, 20] was 0 and the “NUMBER OF MICE BLOCKED, PTOSIS” value [3, 20] was 0. For the same molecule, the “NUMBER OF MICE BLOCKED, EXPLORATORY ACTIVITY” value [3, 21] was 10, the “NUMBER OF MICE BLOCKED, PTOSIS” value [3, 21] was 10 and the “NUMBER OF MICE BLOCKED, EXPLORATORY ACTIVITY” value [3, 22] was 10. For the same molecule, the “NUMBER OF MICE BLOCKED, PTOSIS” value [3, 22] was 10, the “NUMBER OF MICE BLOCKED, EXPLORATORY ACTIVITY” value [3, 23] was 0 and the “NUMBER OF MICE BLOCKED, PTOSIS” value [3, 23] was 0. The “NUMBER OF MICE BLOCKED, EXPLORATORY ACTIVITY” value [3, 24] was 10, the “NUMBER OF MICE BLOCKED, PTOSIS” value [3, 24] was 10 and the “NUMBER OF MICE BLOCKED, EXPLORATORY ACTIVITY” value [3, 25] was 10. The “NUMBER OF MICE BLOCKED, PTOSIS” value [3, 25] was 10, the ED50 ([3]; 1 h, read-out: ED50, EXPLORATORY ACTIVITY) was greater than 81 mg/kg and the ED50 ([3]; 1 h, read-out: ED50, PTOSIS) was greater than 81 mg/kg. The ED50 ([3]; 2 h, read-out: ED50, EXPLORATORY ACTIVITY) was 11.2 mg/kg, the ED50 ([3]; 2 h, read-out: ED50, PTOSIS) was 8.5 mg/kg and the ED50 ([3]; 4 h, read-out: ED50, EXPLORATORY ACTIVITY) was 9 mg/kg. For the same molecule, the ED50 ([3]; 4 h, read-out: ED50, PTOSIS) was 7.2 mg/kg, the “No. of Mice Blocked, EXPLORATORY ACTIVITY” value [3, 26] was 0 and the “No. of Mice Blocked, PTOSIS” value [3, 26] was 1. For the same molecule, the “No. of Mice Blocked, EXPLORATORY ACTIVITY” value [3, 27] was 2, the “No. of Mice Blocked, PTOSIS” value [3, 27] was 5 and the “No. of Mice Blocked, EXPLORATORY ACTIVITY” value [3, 28] was 12. The “No. of Mice Blocked, PTOSIS” value [3, 28] was 18, the “No. of Mice Blocked, EXPLORATORY ACTIVITY” value [3, 29] was 20 and the “No. of Mice Blocked, PTOSIS” value [3, 29] was 20. For the same molecule, the “ED50, EXPLORATORY ACTIVITY, Molindone” value [3, 30] was 10.8 mg/kg, the “ED50, PTOSIS, Molindone” value [3, 30] was 6.4 mg/kg and the “Peak time (antitetrabenazine activity)” value ([3]; oral, mice) was 4 to 6 h. For the same molecule, the “HEAD TWITCH (mice responding)” value [4] was 0.

— patent publication US4148896A, “Antidepressant combination” (E. I. Du Pont de Nemours and Company, priority 1978, dated 1979)
